Source: patent US5994398A, “Arylsulfonamides as phospholipase A2 inhibitors” (Elan Pharmaceuticals, Inc., priority 1996, dated 1999)

Legend:
[1] = tested on: Ca^+2 -independent PLA2; conditions: Ackermann et al. (1995); cited from earlier work
[2] = tested on: cPLA2; conditions: Street et al. (1993); cited from earlier work
[3] = tested on: Alzheimer's Disease patients; conditions: selected group of five AD patients; cited from earlier work
[4] = tested on: IL-1β and TNF-α release in cultured microglial cells; experiment: Aβ1-40-induced cytokine (IL-1β and TNF-α) release in microglia, ELISA; format: cell-based, human; conditions: 50 μM Aβ1-40, cultured microglia, vs vehicle control
Method: Cultures of human cortical astrocytes and microglia were prepared using a modification of the procedure described for cortical neurons. Cortical tissue from fetuses of 16 to 20 weeks of gestation was washed 3 times in Ca^2+ /Mg^2+ free Hanks balanced salt solution (CMF HBSS) and then dissociated by repeated pipetting. The solution was brought to a final volume of 80 mL CMF HBSS for approximately 10 mL of tissue. DNase (Sigma) was added to a final concentration of 0.05 mg/mL. 20 mL of the solution was passed through one 100 μm nylon cell strained (Falcon). The cells were then centrifuged for 5 minutes at 200×G in an IEC Clinical Centrifuge and resuspended in a trypsin/EDTA solution (0.05% trypsin+0.53 mM EDTA in HBSS; Gibco) and incubated for 20 minutes at 37° C. (10 mL of trypsin was added per 2-3 mL of tissue). The trypsin was then inactivated by adding (MEM/FBS): Modified Eagle's Medium (MEM) containing 1% glucose, 1 mM sodium pyruvate, 1 mM glutamine, and supplemented with 10% fetal bovine serum (JRH). After adding a final concentration of 0.05 mg/mL DNase the cells were resuspended and then pelleted by centrifugation and resuspended in MEM/FBS. […]
Cultured microglial cells were treated with 50 μM of Aβ1-40 or vehicle only (Control). The levels of IL-1β and TNF-α released into the culture medium were determined by ELISA assay (R&D Systems) according to manufacturer's instructions. […]

| Compound | inhibition of Ca+2-independent PLA2 activity [1] | inhibition of cPLA2 [2] | effects on neuropathological progression [3] | symptomatic progression of AD [3] | stimulation of release of IL-1β and TNF-α into culture medium [4] |
| --- | --- | --- | --- | --- | --- |
| O=C1O/C(=C/Br)CCC1c1cccc2ccccc12 (stereo not drawn) [Bromoenol lactone] | capable of inhibiting | capable of inhibiting |  |  |  |
| CCCCC/C=C\C/C=C\C/C=C\C/C=C\CCCC(=O)C(F)(F)F [arachidonyl trifluoromethyl ketone] | capable of inhibiting | capable of inhibiting |  |  |  |
| COc1ccc2c(c1)c(CC(=O)O)c(C)n2C(=O)c1ccc(Cl)cc1 [indomethacin] |  |  | no effects on neuropathological progression were noted | allegedly useful in reducing symptomatic progression |  |
| CCCCCCCCCCCCCCCC(=O)C(F)(F)F [palmitoyl trifluoromethyl ketone] | capable of inhibiting | capable of inhibiting |  |  |  |
| Aβ1-40: Amyloid-β (Aβ) peptide 1-40, stock solutions 1 mM in sterile ddH2O |  |  |  |  | found to stimulate the release of IL-1β and TNF-α |
